What is called IC50 is the concentration at which inhibition is half-maximal.

The structures appear in SMILES notation.

Six compounds from patent US6362209B1, “Heterocyclic aromatic oxazole compounds and use thereof” (Japan Tobacco Inc., priority 1994, dated 2002) can be followed below.

For one experiment, the target named is cyclooxygenase-1 (Homo sapiens, UniProt P23219). Kind of experiment: Inhibitory action on cyclooxygenase-1 (conversion of 14C arachidonic acid to PGH2). It is filed as biochemical. As to conditions: enzyme prepared from human platelets; preincubation 24° C. 5 minutes; read-out: IC50 COX-1.
The next experiment concerns the target T1, human cyclooxygenase-2 (Homo sapiens, UniProt P35354).
T1 sequence (P35354 18-604): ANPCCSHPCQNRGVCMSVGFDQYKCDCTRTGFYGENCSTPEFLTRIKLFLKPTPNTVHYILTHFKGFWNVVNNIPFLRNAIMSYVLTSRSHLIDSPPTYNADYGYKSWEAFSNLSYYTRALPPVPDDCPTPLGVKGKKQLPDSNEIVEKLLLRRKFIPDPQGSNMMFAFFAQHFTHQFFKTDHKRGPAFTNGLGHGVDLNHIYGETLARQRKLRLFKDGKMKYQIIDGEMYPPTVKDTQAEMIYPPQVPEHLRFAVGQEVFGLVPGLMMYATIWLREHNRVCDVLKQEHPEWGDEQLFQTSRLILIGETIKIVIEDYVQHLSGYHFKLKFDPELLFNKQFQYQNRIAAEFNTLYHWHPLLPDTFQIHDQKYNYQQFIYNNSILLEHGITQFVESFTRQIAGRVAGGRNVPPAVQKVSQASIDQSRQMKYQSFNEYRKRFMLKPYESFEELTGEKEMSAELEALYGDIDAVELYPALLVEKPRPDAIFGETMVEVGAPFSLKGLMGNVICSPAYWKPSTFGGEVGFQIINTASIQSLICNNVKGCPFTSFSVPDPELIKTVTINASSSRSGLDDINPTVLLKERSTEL
Put plainly: Inhibitory action on cyclooxygenase-2 (conversion of 14C arachidonic acid to PGH2).

Experiment [1] relates to carrageenin-induced podedema. Put plainly: Effects on carrageenin-induced podedema in rats. To be noted: oral dose one hour before carrageenin; limb volume 3 hours after carrageenin; dose inhibiting by 30% relative to control. It is filed as in vivo, male Donryu rats. The method, then: Experimental Example 2 (effects on carrageen in induced podedema) Carrageenin (1%, 0.05 ml) dissolved in physiological saline was subcutaneously injected to the left hindlimb of male Donryu rats to induce podedema. The degree of podedema was evaluated by measuring the volume of the limb 3 hours after carrageenin administration. A test compound (1, 3, 10 or 30 mg/kg) was orally administered one hour before carrageenin administration, and suppression thereby was studied. Inhibitory activity was expressed by the dose (ED30) of the test compound necessary for inhibiting by 30% relative to the control group.
On the technique in general: Carrageenan injected into the paw causes an acute inflammation.

Chain of cyclooxygenase-1 (P23219 24-599): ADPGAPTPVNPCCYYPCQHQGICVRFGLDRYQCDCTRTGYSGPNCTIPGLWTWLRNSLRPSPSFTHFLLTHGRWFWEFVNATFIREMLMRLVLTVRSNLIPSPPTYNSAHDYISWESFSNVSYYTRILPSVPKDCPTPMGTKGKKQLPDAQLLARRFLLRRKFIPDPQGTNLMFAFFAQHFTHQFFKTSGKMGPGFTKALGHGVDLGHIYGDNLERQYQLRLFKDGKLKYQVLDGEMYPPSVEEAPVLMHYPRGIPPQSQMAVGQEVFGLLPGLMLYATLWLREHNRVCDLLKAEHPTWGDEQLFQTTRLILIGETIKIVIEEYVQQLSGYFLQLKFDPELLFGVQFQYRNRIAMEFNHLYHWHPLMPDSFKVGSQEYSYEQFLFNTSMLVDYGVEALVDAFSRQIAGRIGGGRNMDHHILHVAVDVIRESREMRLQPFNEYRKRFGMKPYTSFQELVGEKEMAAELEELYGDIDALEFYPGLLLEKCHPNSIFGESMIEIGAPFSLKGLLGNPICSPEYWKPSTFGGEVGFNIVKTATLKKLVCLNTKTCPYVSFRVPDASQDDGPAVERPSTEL
Procedure for cyclooxygenase-1: (§1) The enzymatic activity was determined from the percent conversion of ^14C arachidonic acid into prostaglandin H2 (PGH2) and the decomposed product thereof. That is, a test sample (20 μl), an enzyme solution (20 μl) and distilled water (10 μl) were added to 100 mM Tris-HCl buffer (pH 8, 140 μl) containing hematin (2 μM) and tryptophan (5 mM), and the mixture was thoroughly stirred, which was followed by preincubation at 24° C. for 5 minutes. Then, a ^14C arachidonic acid solution (10 μl) was added and the mixture was reacted at 24° C., whereafter a solution (40 μl) of ethyl ether/methanol/1M citric acid (30/4/1) iceooled to −20° C. was added to stop the reaction. The reaction mixture was centrifuged for 5 minutes at 3,000 rpm to give an ether layer which was placed on a thin plate, and developed with ethyl ether/methanol/acetic acid (90/2/0.1) to determine percent conversion (A) from arachidonic acid to PGH2 and the decomposed product thereof.
Inhibition (%)=(1A/B)×100
(§2) An enzyme prepared from human platelets was used as an enzyme solution of cyclooxygenase-1, and an enzyme expressed by a yeast, into which cDNA of human cyclooxygenase-2 had been introduced using a kit of Invitrogen Corp., was used as an enzyme solution of cyclooxygenase-2.
Procedure for human cyclooxygenase-2: as §1
Inhibition (%)=(1A/B)×100
as §2

As to `Cc1nc(C2CCCCC2)c(-c2ccc(S(N)(=O)=O)cc2)o1` [Control 1, reference compound], the IC50 at cyclooxygenase-1 was determined as 45000 nM. As for `Cc1nc(C2CCCCC2)c(-c2ccc(S(N)(=O)=O)c(F)c2)o1` [Example 2, 5-(4-aminosulfonyl-3-fluorophenyl)-4-cyclohexyl-2-methyloxazole], the IC50 against human cyclooxygenase-2 stood at 70 nM. The “carrageenin-induced podedema in rats, ED30” value in experiment [1] is given as 5.5 mg/kg p.o.

With `Cc1nc(C2CCCCC2)c(-c2ccc(S(C)(=O)=O)c(F)c2)o1` [Example 3, 4-cyclohexyl-5-(3-fluoro-4-methylsulfonylphenyl)-2-methyloxazole], the IC50 was 300 nM at human cyclooxygenase-2 and > 100000 nM at cyclooxygenase-1. For `Cc1nc(C2CCCCC2)c(-c2cc(F)c(S(N)(=O)=O)c(F)c2)o1` [Example 6] the same measures were 160 nM and > 100000 nM. With `Cc1nc(-c2ccc(F)cc2)c(-c2ccc(S(N)(=O)=O)c(F)c2)o1` [Example 7, 5-(4-aminosulfonyl-3-fluorophenyl)-4-(4-fluorophenyl)-2-methyloxazole], the IC50 amounted to 30 nM against human cyclooxygenase-2 and 37000 nM at cyclooxygenase-1. With `COc1ccc2c(c1)c(CC(=O)O)c(C)n2C(=O)c1ccc(Cl)cc1` [Indomethacin, reference compound], in experiment [1], the “carrageenin-induced podedema in rats, ED30” value is reported as 2.9 mg/kg p.o.
